Test results published in DBAASP.
≈ marks a conversion by molar mass, not a printed value.

Experiments:
Assay in all cases: ≥ marks a high value that may be exact or a test limit, other limits are often not marked, values filed in µg/mL are converted to µM
Bacillus subtilis 168 = tested on: Bacillus subtilis 168
Escherichia coli B = tested on: Escherichia coli B
Staphylococcus aureus = tested on: Staphylococcus aureus
[1] = tested on: Candida albicans F7-39/IDE99
Pseudomonas aeruginosa = tested on: Pseudomonas aeruginosa
[2] = tested on: Staphylococcus aureus ATCC 6538P
Escherichia coli JM109 = tested on: Escherichia coli JM109
[3] = tested on: Enterococcus faecalis NCTC 12697
Proteus mirabilis = tested on: Proteus mirabilis
Escherichia coli = tested on: Escherichia coli
Shigella dysenteriae = tested on: Shigella dysenteriae
Bacillus subtilis = tested on: Bacillus subtilis
Salmonella typhimurium = tested on: Salmonella typhimurium
[4] = tested on: Staphylococcus epidermidis
Micrococcus luteus = tested on: Micrococcus luteus
Klebsiella pneumoniae = tested on: Klebsiella pneumoniae
[5] = tested on: Bacillus subtilis ATCC 6633
[6] = tested on: Enterococcus faecalis ATCC 29212
[7] = tested on: Staphylococcus aureus ATCC 25923
[8] = tested on: Salmonella enterica subsp. enterica serovar Typhimurium ATCC 14028
[9] = tested on: Klebsiella pneumoniae ATCC 13883
[10] = tested on: Pseudomonas aeruginosa ATCC 27853
[11] = tested on: Streptococcus pyogenes ATCC 19615
[12] = tested on: Escherichia coli ATCC 25922
[13] = tested on: Klebsiella pneumoniae ATCC 10031
[14] = tested on: Shigella dysenteriae ATCC 9752
[15] = tested on: Staphylococcus epidermidis ATCC 12228

SMILES	MIC (Staphylococcus aureus) [µM]	MIC (Pseudomonas aeruginosa) [µM]	MIC (Proteus mirabilis) [µM]	MIC (Escherichia coli) [µM]	MIC (Shigella dysenteriae) [µM]	MIC (Bacillus subtilis) [µM]	MIC (Salmonella typhimurium) [µM]	MIC [4] [µM]	MIC (Micrococcus luteus) [µM]	MIC (Klebsiella pneumoniae) [µM]	also measured
CSCC[C@H](NC(=O)[C@H](CCCCN)NC(=O)[C@H](Cc1ccccc1)NC(=O)CN)C(=O)N[C@@H](C)C(=O)N[C@@H](CC(C)C)C(=O)N[C@@H](CCCCN)C(=O)N[C@@H](CC(C)C)C(=O)N[C@@H](CC(C)C)C(=O)N[C@@H](CCCCN)C(=O)N[C@@H](CCCCN)C(=O)N[C@H](C(=O)N[C@@H](CC(C)C)C(N)=O)C(C)C [GFKMALKLLKKVL]	5 (≈ 7.44 µg/mL)	11.3 (≈ 16.8 µg/mL)									MIC (Bacillus subtilis 168): 1.3 µM (≈ 1.93 µg/mL); MIC (Escherichia coli B): 2.3 µM (≈ 3.42 µg/mL); MIC [1]: 4.3 µM (≈ 6.4 µg/mL)
CC[C@H](C)[C@H](NC(=O)[C@H](C)NC(=O)[C@H](CC(C)C)NC(=O)[C@H](CC(C)C)NC(=O)[C@H](Cc1c[nH]c2ccccc12)NC(=O)[C@H](C)N)C(=O)N[C@@H](CCCN=C(N)N)C(=O)N[C@@H](CCCN=C(N)N)C(=O)N[C@@H](CCCN=C(N)N)C(N)=O [AWLLAIRRR]	17.3 (≈ 20 µg/mL)	3.46 (≈ 4 µg/mL)									MIC [2]: 1.73 µM (≈ 2 µg/mL); MIC (Escherichia coli JM109): 2.6 µM (≈ 3 µg/mL)
CC(C)C[C@H](NC(=O)[C@H](C)NC(=O)[C@H](Cc1c[nH]c2ccccc12)NC(=O)[C@H](CCCCN)NC(=O)[C@@H]1CCCN1C(=O)[C@H](CC(C)C)NC(=O)[C@@H](N)Cc1ccccc1)C(=O)N[C@@H](CCCCN)C(=O)N[C@@H](Cc1c[nH]c2ccccc12)C(=O)N[C@@H](C)C(=O)N[C@@H](C)C(=O)N[C@@H](CCCCN)C(N)=O [FLPKWALKWAAK]											MIC [3]: ≥ 512 µM
CC(C)C[C@H](NC(=O)[C@@H](NC(=O)[C@H](CCCCN)NC(=O)[C@H](CO)NC(=O)[C@H](C)NC(=O)[C@@H](NC(=O)[C@H](CCCCN)NC(=O)[C@H](Cc1ccccc1)NC(=O)[C@@H](N)CC(C)C)C(C)C)C(C)C)C(=O)N1CCC[C@H]1C(=O)N[C@@H](CO)C(=O)N[C@H](C(=O)N[C@@H](CCCCN)C(=O)O)C(C)C [LFKVASKVLPSVK]	> 141	> 141	≥ 141	> 141	≥ 141	≥ 141	≥ 141	≥ 141	≥ 141	> 141	
CC[C@H](C)[C@H](N)C(=O)N[C@@H](CC(N)=O)C(=O)N[C@@H](Cc1c[nH]c2ccccc12)C(=O)N[C@@H](CCCCN)C(=O)N[C@@H](CCCCN)C(=O)N[C@H](C(=O)N[C@@H](C)C(=O)N[C@@H](CCC(=O)O)C(=O)N[C@H](C(=O)NCC(=O)N[C@@H](CCCCN)C(=O)N[C@@H](CCC(N)=O)C(=O)N[C@H](C(=O)N[C@@H](CC(C)C)C(=O)N[C@@H](CO)C(=O)N[C@@H](C)C(=O)N[C@@H](CC(C)C)C(N)=O)C(C)C)[C@@H](C)CC)[C@@H](C)CC [INWKKIAEIGKQVLSAL]											MIC [5]: 1.05 µM (≈ 2 µg/mL); MIC (Escherichia coli JM109): 4.19 µM (≈ 8 µg/mL)
CC[C@H](C)[C@H](NC(=O)[C@H](CC(C)C)NC(=O)[C@H](Cc1cnc[nH]1)NC(=O)CNC(=O)[C@H](CC(C)C)NC(=O)[C@@H](NC(=O)[C@H](CCCCN)NC(=O)[C@H](CCCCN)NC(=O)[C@H](Cc1c[nH]c2ccccc12)NC(=O)[C@H](CCCCN)NC(=O)CN)[C@@H](C)CC)C(=O)N[C@@H](CCCN=C(N)N)C(N)=O [GKWKKILGHLIR]	28.3 (≈ 41 µg/mL)	30 (≈ 43.4 µg/mL)									MIC (Bacillus subtilis 168): 1.2 µM (≈ 1.74 µg/mL); MIC (Escherichia coli B): 2.7 µM (≈ 3.91 µg/mL); MIC [1]: 5.3 µM (≈ 7.67 µg/mL)
CC(C)C[C@H](NC(=O)[C@H](Cc1c[nH]c2ccccc12)NC(=O)CNC(=O)[C@H](CC(C)C)NC(=O)[C@@H](N)Cc1ccccc1)C(=O)N[C@@H](Cc1ccccc1)C(=O)N[C@@H](CCCCN)C(=O)N[C@H](C(=O)N[C@@H](C)C(=O)N[C@@H](CO)C(=O)N[C@@H](CCCCN)C(=O)O)C(C)C [FLGWLFKVASK]	2.39 (≈ 3.1 µg/mL)	77.2 (≈ 100 µg/mL)	≥ 154	19.3 (≈ 25 µg/mL)	9.65 (≈ 12.5 µg/mL)	4.86 (≈ 6.3 µg/mL)	≥ 38.6	9.65 (≈ 12.5 µg/mL)	19.3 (≈ 25 µg/mL)	9.65 (≈ 12.5 µg/mL)	
CC[C@H](C)[C@H](NC(=O)[C@@H]1CCCN1C(=O)[C@H](CC(C)C)NC(=O)[C@@H](N)CC(C)C)C(=O)N[C@H](C(=O)NCC(=O)N[C@@H](CC(N)=O)C(=O)N[C@@H](CC(C)C)C(=O)N[C@@H](CC(C)C)C(=O)N[C@@H](CCCCN)C(=O)N[C@@H](CO)C(=O)N[C@@H](CC(C)C)C(=O)N[C@@H](CC(C)C)C(=O)NCC(=O)N[C@@H](C)C(=O)N[C@@H](CCCCN)C(=O)N[C@@H](CCCN=C(N)N)C(=O)N[C@@H](CCCCN)C(=O)N[C@@H](CCCN=C(N)N)C(=O)N[C@@H](C)C(=O)NCC(N)=O)C(C)C [LLPIVGNLLKSLLGAKRKRAG]				100 (≈ 222 µg/mL)		≥ 100					MIC [6]: > 200 µM; MIC [7]: 100 µM (≈ 222 µg/mL); MIC [8]: > 200 µM; MIC [9]: ≥ 200 µM; MIC [10]: 100 µM (≈ 222 µg/mL); MIC [11]: ≥ 200 µM
CC(C)C[C@H](NC(=O)[C@H](C)NC(=O)CNC(=O)[C@H](CC(C)C)NC(=O)[C@@H](N)Cc1ccccc1)C(=O)N[C@@H](Cc1ccccc1)C(=O)N[C@@H](CCCCN)C(=O)N[C@@H](CC(C)C)C(=O)N[C@@H](C)C(=O)N[C@@H](CO)C(=O)N[C@@H](CCCCN)C(=O)O [FLGALFKLASK]	20.9 (≈ 25 µg/mL)	167 (≈ 200 µg/mL)	≥ 167	83.7 (≈ 100 µg/mL)	≥ 83.7	20.9 (≈ 25 µg/mL)	≥ 167	≥ 83.7	10.5 (≈ 12.5 µg/mL)	167 (≈ 200 µg/mL)	
CC(C)C[C@H](NC(=O)[C@H](CC(C)C)NC(=O)[C@H](Cc1c[nH]c2ccccc12)NC(=O)[C@H](CCCCN)NC(=O)[C@H](CC(C)C)NC(=O)[C@@H](N)CC(C)C)C(=O)N[C@@H](CCCCN)C(N)=O [LLKWLLK]											MIC [12]: 110 µM (≈ 99.9 µg/mL); MIC [13]: ≥ 219 µM; MIC [5]: 27.4 µM (≈ 25 µg/mL); MIC [2]: 27.4 µM (≈ 25 µg/mL); MIC [8]: 219 µM (≈ 200 µg/mL); MIC [14]: ≥ 110 µM; MIC [15]: 110 µM (≈ 99.9 µg/mL); MIC [10]: 110 µM (≈ 99.9 µg/mL)
CC(C)C[C@H](NC(=O)[C@H](Cc1c[nH]c2ccccc12)NC(=O)[C@H](CCC(N)=O)NC(=O)[C@@H](N)C(C)C)C(=O)N[C@@H](CCC(=O)O)C(=O)N[C@@H](CCC(N)=O)C(=O)N[C@@H](CCC(N)=O)C(=O)N[C@H](C(=O)N[C@@H](C)C(=O)N[C@@H](CCCCN)C(=O)N[C@@H](CCCN=C(N)N)C(=O)N[C@@H](CCCN=C(N)N)C(=O)N[C@H](C(=O)N[C@@H](CCCCN)C(=O)N[C@@H](CCCN=C(N)N)C(=O)O)[C@@H](C)O)C(C)C [VQWLEQQVAKRRTKR]				> 100		≥ 100					MIC [6]: > 100 µM; MIC [7]: > 100 µM; MIC [8]: > 100 µM; MIC [9]: ≥ 100 µM; MIC [10]: > 100 µM; MIC [11]: ≥ 100 µM
CC(C)C[C@H](NC(=O)[C@H](Cc1ccccc1)NC(=O)CNC(=O)[C@H](CC(C)C)NC(=O)[C@@H](N)Cc1ccccc1)C(=O)N[C@@H](Cc1ccccc1)C(=O)N[C@@H](CCCCN)C(=O)N[C@H](C(=O)N[C@@H](C)C(=O)N[C@@H](CO)C(=O)N[C@@H](CCCCN)C(=O)O)C(C)C [FLGFLFKVASK]	9.95 (≈ 12.5 µg/mL)	> 159	≥ 159	79.6 (≈ 100 µg/mL)	≥ 79.6	9.95 (≈ 12.5 µg/mL)	≥ 159	≥ 39.8	9.95 (≈ 12.5 µg/mL)	79.6 (≈ 100 µg/mL)	
CC[C@H](C)[C@H](NC(=O)[C@H](Cc1cnc[nH]1)NC(=O)[C@H](CCCCN)NC(=O)[C@H](CC(C)C)NC(=O)[C@H](CC(C)C)NC(=O)[C@H](CO)NC(=O)[C@H](CCSC)NC(=O)[C@H](Cc1c[nH]c2ccccc12)NC(=O)[C@H](CCCCN)NC(=O)CN)C(=O)N[C@@H](CC(C)C)C(=O)N[C@@H](CCCCN)C(N)=O [GKWMSLLKHILK]	8.1 (≈ 11.8 µg/mL)	42.1 (≈ 61.2 µg/mL)									MIC (Bacillus subtilis 168): 1 µM (≈ 1.45 µg/mL); MIC (Escherichia coli B): 2.5 µM (≈ 3.63 µg/mL); MIC [1]: 6.6 µM (≈ 9.59 µg/mL)
